# Measured values taken from patent publication US20200038486A1, “THERAPEUTIC MEDICINE FOR FIBROUS DISEASE” (StemRIM Inc., priority 2017, published 2020).
# Where no end group is shown, it is not given here.
# System: 129SV/colVII homo mice (epidermolysis bullosa model mice)
# Test: Forelimb finger adhesion in epidermolysis bullosa model mice
# Type: in vivo
# Settings: from the start of treatment to Week 8
sequence,measurement,value
MGKGDPKKPRGKMSSYAFFVQTCREEHKKKHPDASVNFSEFSKK [HMGB1 peptide (1-44)],body weight compared with the vehicle group,no significant difference between the groups
